Source: ChEMBL document CHEMBL2346657, “Synthesis of novel 2-amino-4-(5'-substituted 2'-phenyl-1H-indol-3'-yl)-6-aryl-4H-pyran-3-carbonitrile derivatives as antimicrobial and antioxidant agents” (2013)
The source made the active and inactive calls. No rule for the calls is given here.

How the values were obtained:
Format in all cases: functional
Aspergillus oryzae [1] = assay: Antimicrobial activity against Aspergillus oryzae MTCC 3567 at 1000 ug/ml after 72 hrs by cup plate method; settings: MTCC 3567, 72 h, read-out: IZ
Aspergillus terreus [2] = assay: Antimicrobial activity against Aspergillus terreus MTCC 1782 at 750 ug/ml after 72 hrs by cup plate method; settings: MTCC 1782, 72 h, read-out: IZ
Aspergillus oryzae [3] = assay: Antimicrobial activity against Aspergillus oryzae MTCC 3567 at 750 ug/ml after 72 hrs by cup plate method; settings: MTCC 3567, 72 h, read-out: IZ
Aspergillus niger [4] = assay: Antimicrobial activity against Aspergillus niger MTCC 281 at 750 ug/ml after 72 hrs by cup plate method; settings: MTCC 281, 72 h, read-out: IZ
Aspergillus niger [5] = assay: Antimicrobial activity against Aspergillus niger MTCC 281 at 1000 ug/ml after 72 hrs by cup plate method; settings: MTCC 281, 72 h, read-out: IZ
Aspergillus terreus [6] = assay: Antimicrobial activity against Aspergillus terreus MTCC 1782 at 500 ug/ml after 72 hrs by cup plate method; settings: MTCC 1782, 72 h, read-out: IZ
Aspergillus flavus [7] = assay: Antimicrobial activity against Aspergillus flavus MTCC 1973 at 500 ug/ml after 72 hrs by cup plate method; settings: MTCC 1973, 72 h, read-out: IZ
Aspergillus flavus [8] = assay: Antimicrobial activity against Aspergillus flavus MTCC 1973 at 1000 ug/ml after 72 hrs by cup plate method; settings: MTCC 1973, 72 h, read-out: IZ
Aspergillus flavus [9] = assay: Antimicrobial activity against Aspergillus flavus MTCC 1973 at 750 ug/ml after 72 hrs by cup plate method; settings: MTCC 1973, 72 h, read-out: IZ
Aspergillus niger [10] = assay: Antimicrobial activity against Aspergillus niger MTCC 281 at 500 ug/ml after 72 hrs by cup plate method; settings: MTCC 281, 72 h, read-out: IZ
Aspergillus oryzae [11] = assay: Antimicrobial activity against Aspergillus oryzae MTCC 3567 at 500 ug/ml after 72 hrs by cup plate method; settings: MTCC 3567, 72 h, read-out: IZ
Aspergillus terreus [12] = assay: Antimicrobial activity against Aspergillus terreus MTCC 1782 at 1000 ug/ml after 72 hrs by cup plate method; settings: MTCC 1782, 72 h, read-out: IZ
[13] = Antioxidant activity assessed as metal chelating activity by measuring inhibition of ferrozine-Fe2+ complex formation at 25 to 100 ug/ml
Pseudomonas aeruginosa [14] = assay: Antimicrobial activity against Pseudomonas aeruginosa MTCC 1688 at 1000 ug/ml after 24 hrs by cup plate method; settings: MTCC 1688, 24 h, read-out: IZ
Staphylococcus aureus [15] = assay: Antimicrobial activity against Staphylococcus aureus ATCC 29513 at 750 ug/ml after 24 hrs by cup plate method; settings: ATCC 29513, 24 h, read-out: IZ
Escherichia coli [16] = assay: Antimicrobial activity against Escherichia coli MTCC 723 at 1000 ug/ml after 24 hrs by cup plate method; settings: MTCC 723, 24 h, read-out: IZ
Escherichia coli [17] = assay: Antimicrobial activity against Escherichia coli MTCC 723 at 750 ug/ml after 24 hrs by cup plate method; settings: MTCC 723, 24 h, read-out: IZ
Staphylococcus aureus [18] = assay: Antimicrobial activity against Staphylococcus aureus ATCC 29513 at 1000 ug/ml after 24 hrs by cup plate method; settings: ATCC 29513, 24 h, read-out: IZ
Pseudomonas aeruginosa [19] = assay: Antimicrobial activity against Pseudomonas aeruginosa MTCC 1688 at 750 ug/ml after 24 hrs by cup plate method; settings: MTCC 1688, 24 h, read-out: IZ
Pseudomonas aeruginosa [20] = assay: Antimicrobial activity against Pseudomonas aeruginosa MTCC 1688 at 500 ug/ml after 24 hrs by cup plate method; settings: MTCC 1688, 24 h, read-out: IZ
Escherichia coli [21] = assay: Antimicrobial activity against Escherichia coli MTCC 723 at 500 ug/ml after 24 hrs by cup plate method; settings: MTCC 723, 24 h, read-out: IZ
Klebsiella pneumoniae [22] = assay: Antimicrobial activity against Klebsiella pneumoniae NCTC 13368 at 750 ug/ml after 24 hrs by cup plate method; settings: NCTC 13368, 24 h, read-out: IZ
Klebsiella pneumoniae [23] = assay: Antimicrobial activity against Klebsiella pneumoniae NCTC 13368 at 500 ug/ml after 24 hrs by cup plate method; settings: NCTC 13368, 24 h, read-out: IZ
Klebsiella pneumoniae [24] = assay: Antimicrobial activity against Klebsiella pneumoniae NCTC 13368 at 1000 ug/ml after 24 hrs by cup plate method; settings: NCTC 13368, 24 h, read-out: IZ
Staphylococcus aureus [25] = assay: Antimicrobial activity against Staphylococcus aureus ATCC 29513 at 500 ug/ml after 24 hrs by cup plate method; settings: ATCC 29513, 24 h, read-out: IZ

Row | Structure (SMILES) | zone of inhibition at 1000 µg/mL (Aspergillus oryzae [1]) | zone of inhibition at 750 µg/mL (Aspergillus terreus [2]) | zone of inhibition at 750 µg/mL (Aspergillus oryzae [3]) | zone of inhibition at 750 µg/mL (Aspergillus niger [4]) | zone of inhibition at 1000 µg/mL (Aspergillus niger [5]) | zone of inhibition at 500 µg/mL (Aspergillus terreus [6]) | zone of inhibition at 500 µg/mL (Aspergillus niger [10]) | zone of inhibition at 500 µg/mL (Aspergillus oryzae [11]) | zone of inhibition at 1000 µg/mL (Aspergillus terreus [12]) | zone of inhibition at 1000 µg/mL (Pseudomonas aeruginosa [14]) | zone of inhibition at 750 µg/mL (Staphylococcus aureus [15]) | zone of inhibition at 1000 µg/mL (Escherichia coli [16]) | zone of inhibition at 750 µg/mL (Escherichia coli [17]) | zone of inhibition at 1000 µg/mL (Staphylococcus aureus [18]) | zone of inhibition at 750 µg/mL (Pseudomonas aeruginosa [19]) | zone of inhibition at 500 µg/mL (Pseudomonas aeruginosa [20]) | zone of inhibition at 500 µg/mL (Escherichia coli [21]) | zone of inhibition at 750 µg/mL (Klebsiella pneumoniae [22]) | zone of inhibition at 500 µg/mL (Klebsiella pneumoniae [23]) | zone of inhibition at 1000 µg/mL (Klebsiella pneumoniae [24]) | other results
1 | OC(Cn1cncn1)(Cn1cncn1)c1ccc(F)cc1F [FLUCONAZOLE] | 14 mm | 14 mm | 14 mm | 13 mm | 14 mm | 13 mm | 13 mm | 13 mm | 14 mm | – | – | – | – | – | – | – | – | – | – | – | zone of inhibition at 500 µg/mL (Aspergillus flavus [7]): 13 mm; zone of inhibition at 1000 µg/mL (Aspergillus flavus [8]): 14 mm; zone of inhibition at 750 µg/mL (Aspergillus flavus [9]): 13 mm
2 | N#CC1=C(N)OC(c2ccc(Cl)cc2)=CC1c1c(-c2ccccc2)[nH]c2ccccc12 (stereo not given) | 3 mm | 13 mm | 9 mm | 6 mm | 5 mm | 12 mm | 8 mm | 9 mm | 13 mm | 8 mm | 10 mm | 3 mm | 5 mm | 10 mm | 8 mm | 10 mm | 5 mm | 2 mm | 2 mm | 2 mm | Activity [13]: Active; zone of inhibition at 1000 µg/mL (Aspergillus flavus [8]): 2 mm; zone of inhibition at 500 µg/mL (Staphylococcus aureus [25]): 10 mm
3 | CN[C@@H]1[C@H](O[C@H]2[C@H](O[C@H]3[C@H](O)[C@@H](O)[C@H](N=C(N)N)[C@@H](O)[C@@H]3N=C(N)N)O[C@@H](C)[C@]2(O)C=O)O[C@@H](CO)[C@H](O)[C@H]1O [STREPTOMYCIN] | – | – | – | – | – | – | – | – | – | 14 mm | 15 mm | 15 mm | 14 mm | 15 mm | 13 mm | 13 mm | 14 mm | 14 mm | 14 mm | 14 mm | zone of inhibition at 500 µg/mL (Staphylococcus aureus [25]): 15 mm
4 | N#Cc1c(N)c2c(N)c3c(nc2oc1=O)OC(c1ccccc1)=CC3c1c(-c2ccccc2)[nH]c2ccc(Cl)cc12 (stereo not given) | 13 mm | 3 mm | 12 mm | 9 mm | 10 mm | 3 mm | 9 mm | 12 mm | 3 mm | 5 mm | 13 mm | 8 mm | 10 mm | 14 mm | 8 mm | 9 mm | 10 mm | 5 mm | 5 mm | 5 mm | Activity [13]: Active; zone of inhibition at 500 µg/mL (Aspergillus flavus [7]): 5 mm; zone of inhibition at 750 µg/mL (Aspergillus flavus [9]): 3 mm; zone of inhibition at 500 µg/mL (Staphylococcus aureus [25]): 13 mm
5 | N#Cc1c(N)c2c(N)c3c(nc2oc1=O)OC(c1ccccc1)=CC3c1c(-c2ccccc2)[nH]c2ccccc12 (stereo not given) | 11 mm | 5 mm | 11 mm | 3 mm | 10 mm | 5 mm | 5 mm | 11 mm | 5 mm | 3 mm | 10 mm | 10 mm | 8 mm | 9 mm | 7 mm | 5 mm | 8 mm | 11 mm | 11 mm | 10 mm | Activity [13]: Active; zone of inhibition at 500 µg/mL (Aspergillus flavus [7]): 5 mm; zone of inhibition at 750 µg/mL (Aspergillus flavus [9]): 3 mm; zone of inhibition at 500 µg/mL (Staphylococcus aureus [25]): 10 mm
